Laboratory results reported in US20170166598A1, “HETEROARYL COMPOUNDS FOR KINASE INHIBITION” (ARIAD PHARMACEUTICALS, INC., priority 2014, published 2017).

What was measured:
Format in all cases: cell-based
[1] = target: T1, Her2 exon 20 YVMA insertion (A775_G776ins YVMA) (Homo sapiens, UniProt P04626, INS775YVMA); assay: Ba/F3-Her2 Exon20 YVMA cell anti-proliferative assay (CellTiter 96 MTS, 72 h); conditions: Ba/F3-Her2 Exon20 YVMA cells
T1 construct: expressed in transfected cells; host or cells: Ba/F3 (murine pro-B) cells transduced with lentivirus from pLVX-IRES puro
T1 sequence (P04626 with tags, fused parts or gaps INS775YVMA): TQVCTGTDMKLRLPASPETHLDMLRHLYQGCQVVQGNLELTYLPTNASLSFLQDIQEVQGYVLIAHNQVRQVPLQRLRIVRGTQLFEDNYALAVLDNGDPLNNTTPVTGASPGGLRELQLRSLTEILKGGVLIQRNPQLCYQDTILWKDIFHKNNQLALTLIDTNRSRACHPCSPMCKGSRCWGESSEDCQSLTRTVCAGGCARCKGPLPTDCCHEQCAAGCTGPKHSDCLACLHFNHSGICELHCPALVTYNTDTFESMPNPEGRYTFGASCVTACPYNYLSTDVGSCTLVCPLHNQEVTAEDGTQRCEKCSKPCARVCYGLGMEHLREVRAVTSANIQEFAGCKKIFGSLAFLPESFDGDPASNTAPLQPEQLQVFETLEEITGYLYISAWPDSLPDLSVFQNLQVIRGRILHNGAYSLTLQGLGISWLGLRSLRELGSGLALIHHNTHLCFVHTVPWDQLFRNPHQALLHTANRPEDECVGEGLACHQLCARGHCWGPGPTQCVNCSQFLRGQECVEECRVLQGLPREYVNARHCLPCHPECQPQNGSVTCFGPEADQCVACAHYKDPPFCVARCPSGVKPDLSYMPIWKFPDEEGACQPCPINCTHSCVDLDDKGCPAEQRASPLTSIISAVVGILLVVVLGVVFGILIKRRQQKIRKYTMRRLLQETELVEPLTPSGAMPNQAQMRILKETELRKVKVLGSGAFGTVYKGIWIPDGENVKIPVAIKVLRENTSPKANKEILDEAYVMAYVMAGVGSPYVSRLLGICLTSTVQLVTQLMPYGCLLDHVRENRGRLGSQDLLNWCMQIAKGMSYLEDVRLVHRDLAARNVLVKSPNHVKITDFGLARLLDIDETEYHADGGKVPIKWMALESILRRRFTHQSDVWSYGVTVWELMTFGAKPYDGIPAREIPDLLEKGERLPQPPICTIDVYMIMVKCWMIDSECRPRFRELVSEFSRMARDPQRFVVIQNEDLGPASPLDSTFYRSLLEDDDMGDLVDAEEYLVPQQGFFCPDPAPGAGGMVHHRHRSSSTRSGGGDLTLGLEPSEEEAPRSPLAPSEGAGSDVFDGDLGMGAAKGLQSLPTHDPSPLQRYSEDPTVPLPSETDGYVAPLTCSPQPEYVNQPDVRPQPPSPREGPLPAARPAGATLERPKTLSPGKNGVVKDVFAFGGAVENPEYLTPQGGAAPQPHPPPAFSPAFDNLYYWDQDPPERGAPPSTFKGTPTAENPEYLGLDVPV
From the text: A compound's ability in selectively inhibiting Her2 exon 20 YVMA insertion mutations can be assessed using Ba/F3 cells, a murine pro-B cell line, which have been transduced with Her2 Exon20 YVMA insertions. An expression vector, pLVX-IRES puro (Clontech) coding for […] (A775_G776ins YVMA), was transfected into HEK293 cells by the Trans-Lentiviral ORF Packaging System (Thermo Scientific), to produce virus encoding EGFR exon 20 insertions. Ba/F3 (DSMZ) cells maintained in RPMI 1640 medium supplemented with 10% fetal bovine serum, 200 μM L-glutamine/200 μg/mL penicillin/200 μg/mL streptomycin (Life Technology) and 10 ng/mL IL-3 (R&D system), were infected by EGFR Exon20 virus and subsequently selected by puromycin (Life Technology) selection and IL-3 depletion. Ba/F3 cells expressing Her2 Exon20 YVMA insertions (named Ba/F3-Her2 Exon20 YVMA) can proliferate in the absence of IL-3. The anti-proliferative activity of compounds was determined as follows: BaF3-Her2 Exon20 YVMA cells seeded in 96 well plates (2500 cells/well) were treated with test compound (dissolved in DMSO) at a series of concentrations (4-fold dilution, top concentration: 10,000 nM). The plates were incubated for 72 h in a 37° C. incubator with 5% CO2, and the number of viable cells in each well were measured indirectly by CellTiter 96@ Aqueous One Solution Cell Proliferation Assay (Promega; this assay is a colorimetric method for determining the number of viable cells through measurement of their metabolic activity by detection of enzymatic conversion of tetrazolium salts into blue formazan derivatives). Reagent (20 μL) was added into each well, and the plates were returned to the incubator for 2 h. The absorbance in each well was then measured at 490 nm using an Envision plate reader (Perkin Elmer).

[2] = target: T2, human EGFR E746-A750 deletion and T790M Mutation (Homo sapiens, UniProt P00533, DEL746-750/T790M); assay: Ba/F3-EGFR-Del/T790M cell anti-proliferative assay (CellTiter 96 MTS, 72 h); conditions: Ba/F3-EGFR-Del/T790M cells
T2 construct: expressed in transfected cells; host or cells: Ba/F3 (murine pro-B) cells transduced with lentivirus from pLVX-IRES puro
T2 sequence (P00533 with tags, fused parts or gaps DEL746-750/T790M): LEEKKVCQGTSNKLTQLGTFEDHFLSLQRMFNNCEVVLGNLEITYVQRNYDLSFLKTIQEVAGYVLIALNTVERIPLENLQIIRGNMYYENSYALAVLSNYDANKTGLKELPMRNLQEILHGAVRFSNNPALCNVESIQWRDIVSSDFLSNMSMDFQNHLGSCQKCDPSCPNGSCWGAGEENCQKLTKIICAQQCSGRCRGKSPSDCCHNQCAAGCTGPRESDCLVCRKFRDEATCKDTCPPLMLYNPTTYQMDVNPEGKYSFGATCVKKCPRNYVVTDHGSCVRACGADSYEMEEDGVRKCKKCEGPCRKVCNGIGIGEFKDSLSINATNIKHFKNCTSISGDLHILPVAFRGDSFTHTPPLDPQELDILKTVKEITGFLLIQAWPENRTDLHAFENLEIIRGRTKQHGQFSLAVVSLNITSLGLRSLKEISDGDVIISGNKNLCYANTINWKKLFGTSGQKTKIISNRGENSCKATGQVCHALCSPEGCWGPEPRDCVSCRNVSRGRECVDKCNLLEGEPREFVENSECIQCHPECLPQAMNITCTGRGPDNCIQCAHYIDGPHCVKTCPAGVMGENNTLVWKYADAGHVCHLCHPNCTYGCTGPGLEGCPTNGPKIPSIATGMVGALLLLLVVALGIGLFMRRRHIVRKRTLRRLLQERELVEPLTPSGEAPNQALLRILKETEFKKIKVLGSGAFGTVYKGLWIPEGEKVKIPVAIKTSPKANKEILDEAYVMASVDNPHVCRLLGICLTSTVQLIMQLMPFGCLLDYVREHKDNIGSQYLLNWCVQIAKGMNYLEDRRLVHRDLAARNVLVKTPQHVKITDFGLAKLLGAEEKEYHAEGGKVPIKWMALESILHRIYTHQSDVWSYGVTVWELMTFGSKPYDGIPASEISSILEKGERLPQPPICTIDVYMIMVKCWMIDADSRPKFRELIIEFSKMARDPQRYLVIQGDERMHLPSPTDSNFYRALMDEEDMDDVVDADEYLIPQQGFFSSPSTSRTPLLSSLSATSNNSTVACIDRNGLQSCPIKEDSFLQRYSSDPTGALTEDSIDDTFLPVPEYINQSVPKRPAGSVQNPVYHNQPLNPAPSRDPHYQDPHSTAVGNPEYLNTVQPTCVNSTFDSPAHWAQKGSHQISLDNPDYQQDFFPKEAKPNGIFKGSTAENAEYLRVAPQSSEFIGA
Protocol: An expression vector, pLVX-IRES puro (Clontech) coding for human EGFR E746-A750 deletion and T790M Mutation, was transfected into HEK293 cells by the Trans-Lentiviral ORF Packaging System (Thermo Scientific), to produce virus encoding EGFR exon 19 deletion and T790M mutations. Ba/F3 (DSMZ) cells maintained in RPMI 1640 medium supplemented with 10% fetal bovine serum, 200 μM L-glutamine/200 μg/mL penicillin/200 μg/mL streptomycin (Life Technology) and 10 ng/mL IL-3 (R&D system), were infected by EGFR E746-A750 deletion and T790M Mutation virus and subsequently selected by puromycin (Life Technology) selection and IL-3 depletion. […] The anti-proliferative activity of compounds was determined as follows: BaF3-EGFR-Del/T790M cells seeded in 96 well plates (2500 cells/well) were treated with test compound (dissolved in DMSO) at a series of concentrations (4-fold dilution, top concentration: 10,000 nM). The plates were incubated for 72 h in a 37° C. incubator with 5% CO2, and the number of viable cells in each well were measured indirectly by CellTiter 96® Aqueous One Solution Cell Proliferation Assay (Promega; this assay is a colorimetric method for determining the number of viable cells through measurement of their metabolic activity by detection of enzymatic conversion of tetrazolium salts into blue formazan derivatives). Reagent (20 μL) was added into each well, and the plates were returned to the incubator for 2 h. The absorbance in each well was then measured at 490 nm using an Envision plate reader (Perkin Elmer).

[3] = target: T3, human EGFR exon 20 insertion NPG (H773_V774insNPG) (Homo sapiens, UniProt P00533, INS772GNP); assay: Ba/F3-EGFR-Exon20-NPG cell anti-proliferative assay (CellTiter 96 MTS, 72 h); conditions: Ba/F3-EGFR-Exon20-NPG cells
T3 construct: expressed in transfected cells; host or cells: Ba/F3 (murine pro-B) cells transduced with lentivirus from pLVX-IRES puro
T3 sequence (P00533 with tags, fused parts or gaps INS772GNP): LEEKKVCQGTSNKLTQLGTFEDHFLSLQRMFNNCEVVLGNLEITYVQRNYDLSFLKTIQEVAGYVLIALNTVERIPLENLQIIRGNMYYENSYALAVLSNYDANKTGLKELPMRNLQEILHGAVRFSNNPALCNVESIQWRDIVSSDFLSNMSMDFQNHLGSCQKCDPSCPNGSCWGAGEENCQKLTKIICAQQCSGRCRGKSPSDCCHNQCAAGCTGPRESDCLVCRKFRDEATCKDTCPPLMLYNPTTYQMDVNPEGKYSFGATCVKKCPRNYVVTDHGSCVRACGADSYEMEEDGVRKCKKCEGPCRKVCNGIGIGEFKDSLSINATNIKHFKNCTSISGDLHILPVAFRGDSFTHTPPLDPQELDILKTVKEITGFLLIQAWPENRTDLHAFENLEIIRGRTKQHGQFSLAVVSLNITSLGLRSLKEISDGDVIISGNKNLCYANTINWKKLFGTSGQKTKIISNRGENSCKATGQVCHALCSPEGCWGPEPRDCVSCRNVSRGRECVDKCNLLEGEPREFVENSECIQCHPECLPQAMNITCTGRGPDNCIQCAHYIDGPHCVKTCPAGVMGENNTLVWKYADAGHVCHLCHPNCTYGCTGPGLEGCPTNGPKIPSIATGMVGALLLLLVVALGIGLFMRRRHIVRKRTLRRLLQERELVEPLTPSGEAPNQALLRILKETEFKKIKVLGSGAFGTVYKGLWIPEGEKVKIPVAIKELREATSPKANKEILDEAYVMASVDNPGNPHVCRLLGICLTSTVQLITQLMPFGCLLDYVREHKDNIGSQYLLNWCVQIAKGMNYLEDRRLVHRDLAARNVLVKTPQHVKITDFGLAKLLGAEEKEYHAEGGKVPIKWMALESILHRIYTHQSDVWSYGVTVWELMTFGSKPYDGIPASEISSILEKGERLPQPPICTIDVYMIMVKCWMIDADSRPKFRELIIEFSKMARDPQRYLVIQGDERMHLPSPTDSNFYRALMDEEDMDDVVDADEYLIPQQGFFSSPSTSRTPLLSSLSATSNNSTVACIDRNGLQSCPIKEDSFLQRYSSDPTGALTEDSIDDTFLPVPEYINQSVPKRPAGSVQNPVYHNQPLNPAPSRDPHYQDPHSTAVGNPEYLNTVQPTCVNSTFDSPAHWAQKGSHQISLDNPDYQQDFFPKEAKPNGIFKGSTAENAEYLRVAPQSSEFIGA
Protocol: (§1) An expression vector, pLVX-IRES puro (Clontech) coding for human EGFR exon 20 insertions NPG (H773_V774insNPG) or ASV (V769_D770insASV), was transfected into HEK293 cells by the Trans-Lentiviral ORF Packaging System (Thermo Scientific), to produce virus encoding EGFR exon 20 insertions. Ba/F3 (DSMZ) cells maintained in RPMI 1640 medium supplemented with 10% fetal bovine serum, 200 μM L-glutamine/l 200 μg/mL penicillin/200 μg/mL streptomycin (Life Technology) and 10 ng/mL IL-3 (R&D system), were infected by EGFR Exon20 virus and subsequently selected by puromycin (Life Technology) selection and IL-3 depletion. […] The anti-proliferative activity of compounds were determined as follows: BaF3-EGFR-Exon20 cells (NPG or ASV) seeded in 96 well plates (2500 cells/well) were treated with test compound (dissolved in DMSO) at a series of concentrations (4-fold dilution, top concentration: 10,000 nM). The plates were incubated for 72 h in a 37° C. incubator with 5% CO2, and the number of viable cells in each well were measured indirectly by CellTiter 96® Aqueous One Solution Cell Proliferation Assay (Promega) This assay is a colorimetric method for determining the number of viable cells through measurement of their metabolic activity by detection of enzymatic conversion of tetrazolium salts into blue formazan derivatives. Reagent (20 μL) was added into each well, and the plates were returned to the incubator for 2 h. The absorbance in each well was then measured at 490 nm using an Envision plate reader (Perkin Elmer).

[4] = target: T4, human EGFR exon 20 insertion ASV (V769_D770insASV) (Homo sapiens, UniProt P00533, INS769ASV); assay: Ba/F3-EGFR-Exon20-ASV cell anti-proliferative assay (CellTiter 96 MTS, 72 h); conditions: Ba/F3-EGFR-Exon20-ASV cells
T4 construct: expressed in transfected cells; host or cells: Ba/F3 (murine pro-B) cells transduced with lentivirus from pLVX-IRES puro
T4 sequence (P00533 with tags, fused parts or gaps INS769ASV): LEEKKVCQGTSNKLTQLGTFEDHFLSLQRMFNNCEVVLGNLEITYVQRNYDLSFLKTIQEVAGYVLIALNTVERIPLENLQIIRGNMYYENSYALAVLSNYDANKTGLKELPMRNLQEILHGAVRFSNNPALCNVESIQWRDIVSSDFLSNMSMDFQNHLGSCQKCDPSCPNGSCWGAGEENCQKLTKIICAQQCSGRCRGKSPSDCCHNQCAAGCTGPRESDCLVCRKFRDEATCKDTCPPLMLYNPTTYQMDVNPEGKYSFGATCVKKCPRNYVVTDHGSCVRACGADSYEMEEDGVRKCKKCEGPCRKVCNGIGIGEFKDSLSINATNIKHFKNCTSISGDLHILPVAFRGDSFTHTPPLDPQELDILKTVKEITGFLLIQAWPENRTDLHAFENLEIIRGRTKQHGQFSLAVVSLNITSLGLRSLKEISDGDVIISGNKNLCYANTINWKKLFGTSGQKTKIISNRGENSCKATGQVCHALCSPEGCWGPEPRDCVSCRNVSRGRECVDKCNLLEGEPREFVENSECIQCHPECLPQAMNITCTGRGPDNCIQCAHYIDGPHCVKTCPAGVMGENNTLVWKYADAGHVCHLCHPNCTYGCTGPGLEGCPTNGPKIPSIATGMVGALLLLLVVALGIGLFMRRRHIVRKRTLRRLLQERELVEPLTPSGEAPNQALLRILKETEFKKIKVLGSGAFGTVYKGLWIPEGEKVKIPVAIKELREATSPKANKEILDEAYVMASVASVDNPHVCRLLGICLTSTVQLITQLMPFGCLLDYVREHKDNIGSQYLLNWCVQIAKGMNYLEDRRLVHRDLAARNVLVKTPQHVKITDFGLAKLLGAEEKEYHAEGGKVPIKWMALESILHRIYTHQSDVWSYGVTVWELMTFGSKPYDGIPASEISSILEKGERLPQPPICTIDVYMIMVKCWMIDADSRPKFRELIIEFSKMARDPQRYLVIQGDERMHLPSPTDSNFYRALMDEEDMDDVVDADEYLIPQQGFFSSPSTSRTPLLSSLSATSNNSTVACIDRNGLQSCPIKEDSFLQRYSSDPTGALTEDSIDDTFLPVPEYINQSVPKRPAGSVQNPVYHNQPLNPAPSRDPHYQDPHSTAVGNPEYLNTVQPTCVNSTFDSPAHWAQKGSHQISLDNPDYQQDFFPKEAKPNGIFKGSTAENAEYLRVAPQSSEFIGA
Protocol: as §1

| SMILES | IC50 [1] | IC50 [3] | IC50 [4] | EGFR exon 19 deletion and exon 20 T790M mutation IC50 [2] |
| --- | --- | --- | --- | --- |
| C=CC(=O)Nc1cc(Nc2ncc(-c3cn(C)nc3C)c(-c3cn4c5c(cccc35)CCC4)n2)c(OC)cc1N(C)CCN(C)C [Example 100] | < 100 nM | < 100 nM | < 100 nM | A (IC50 value for the indicated mutant below about 100 nM) |
| C=CC(=O)Nc1cc(Nc2ncc(C#N)c(-c3cn4c5c(cccc35)CCC4)n2)c(OC)cc1N1CC[C@@H](N(C)C)C1 [Example 15, (R)-N-(5-((5-cyano-4-(5,6-dihydro-4H-pyrrolo[3,2,1-ij]quinolin-1-yl)pyrimidin-2-yl)amino)-2-(3-(dimethylamino)pyrrolidin-1-yl)-4-methoxyphenyl)acrylamide] | 100 to 500 nM | < 100 nM | < 100 nM | A (IC50 value for the indicated mutant below about 100 nM) |
| C=CC(=O)Nc1cc(Nc2nccc(-c3c(-c4ncccn4)n4c5c(cccc35)CCC4)n2)c(OC)cc1N(C)CCN(C)C [Example 109] | > 1000 nM | 100 to 500 nM | > 1000 nM | B (IC50 value for the indicated mutant between about 100 to about 500 nM) |
| C=CC(=O)Nc1cc(Nc2ncc(-c3ncco3)c(-c3cn4c5c(cccc35)CCC4)n2)c(OC)cc1N(C)CCN(C)C [Example 62, N-(5-((4-(5,6-dihydro-4H-pyrrolo[3,2,1-ij]quinolin-1-yl)-5-(oxazol-2-yl)pyrimidin-2-yl)amino)-2-((2-(dimethylamino)ethyl)(methyl)amino)-4-methoxyphenyl)acrylamide] | < 100 nM | < 100 nM | < 100 nM | A (IC50 value for the indicated mutant below about 100 nM) |
| C=CC(=O)Nc1cc(Nc2ncc(Cl)c(-c3cn4c5c(cccc35)CCC4)n2)c(OC)cc1N(C)CCN1CCN(C)CC1 [Example 25, N-(5-((5-chloro-4-(5,6-dihydro-4H-pyrrolo[3,2,1-ij]quinolin-1-yl)pyrimidin-2-yl)amino)-4-methoxy-2-(methyl(2-(4-methylpiperazin-1-yl)ethyl)amino)phenyl)acrylamide] | > 1000 nM | 100 to 500 nM | – | A (IC50 value for the indicated mutant below about 100 nM) |
| C=CC(=O)Nc1cc(Nc2ncc(Cl)c(-c3cn4c5c(cccc35)CCC4)n2)c(OC)cc1N(C)CCN1CCCC1 [Example 24, N-(5-((5-chloro-4-(5,6-dihydro-4H-pyrrolo[3,2,1-ij]quinolin-1-yl)pyrimidin-2-yl)amino)-4-methoxy-2-(methyl(2-(pyrrolidin-1-yl)ethyl)amino)phenyl)acrylamide] | 100 to 500 nM | < 100 nM | – | A (IC50 value for the indicated mutant below about 100 nM) |
| C=CC(=O)Nc1cc(Nc2ncc(Cl)c(-c3cn4c5c(cccc35)OCC4)n2)c(C)cc1N(C)CCN1CCCC1 [Example 79, N-(5-((5-chloro-4-(2,3-dihydro-[1,4]oxazino[2,3,4-hi]indol-6-yl)pyrimidin-2-yl)amino)-4-methyl-2-(methyl(2-(pyrrolidin-1-yl)ethyl)amino)phenyl)acrylamide] | 100 to 500 nM | < 100 nM | – | A (IC50 value for the indicated mutant below about 100 nM) |
| C=CC(=O)Nc1cc(Nc2ncc(Cl)c(-c3cn4c5c(cccc35)OCC4)n2)c(C)cc1OCCN1CCCC1 [Example 78, N-(5-((5-chloro-4-(2,3-dihydro-[1,4]oxazino[2,3,4-hi]indol-6-yl)pyrimidin-2-yl)amino)-4-methyl-2-(2-(pyrrolidin-1-yl)ethoxy)phenyl)acrylamide] | 100 to 500 nM | < 100 nM | – | A (IC50 value for the indicated mutant below about 100 nM) |

Continued, in another order:

| IC50 [1] | IC50 [3] | IC50 [4] | SMILES | EGFR exon 19 deletion and exon 20 T790M mutation IC50 [2] |
| --- | --- | --- | --- | --- |
| 100 to 500 nM | < 100 nM | < 100 nM | C=CC(=O)Nc1cc(Nc2ncc(OC(F)F)c(-c3cn4c5c(cccc35)CCC4)n2)c(OC)cc1N(C)CCN(C)C [Example 64, N-(5-((5-(difluoromethoxy)-4-(5,6-dihydro-4H-pyrrolo[3,2,1-ij]quinolin-1-yl)pyrimidin-2-yl)amino)-2-((2-(dimethylamino)ethyl)-(methyl)amino)-4-methoxyphenyl)acrylamide] | A (IC50 value for the indicated mutant below about 100 nM) |
| < 100 nM | < 100 nM | < 100 nM | C=CC(=O)Nc1cc(Nc2ncc(C(=O)OC(C)C)c(-c3cn4c5c(cccc35)CCC4)n2)c(OC)cc1N(C)CCN(C)C [Example 103] | A (IC50 value for the indicated mutant below about 100 nM) |
| 100 to 500 nM | < 100 nM | < 100 nM | C=CC(=O)Nc1cc(Nc2ncc(OCCOC)c(-c3cn4c5c(cccc35)CCC4)n2)c(OC)cc1N(C)CCN(C)C [Example 104] | A (IC50 value for the indicated mutant below about 100 nM) |
| 100 to 500 nM | < 100 nM | < 100 nM | C=CC(=O)Nc1cc(Nc2ncc(-c3ncnn3C)c(-c3cn4c5c(cccc35)CCC4)n2)c(OC)cc1N(C)CCN(C)C [Example 111] | A (IC50 value for the indicated mutant below about 100 nM) |
| < 100 nM | < 100 nM | – | C=CC(=O)Nc1cc(Nc2ncc(C(=C)C)c(-c3cn4c5c(cccc35)CCC4)n2)c(OC)cc1N(C)CCN(C)C [Example 29, N-(5-((4-(5,6-dihydro-4H-pyrrolo[3,2,1-ij]quinolin-1-yl)-5-(prop-1-en-2-yl)pyrimidin-2-yl)amino)-2-((2-(dimethylamino)ethyl)(methyl)amino)-4-methoxyphenyl)acrylamide] | A (IC50 value for the indicated mutant below about 100 nM) |
